Laboratory results from article PMC6872687, “Potential for imaging the high-affinity state of the 5-HT1B receptor: a comparison of three PET radioligands with differing intrinsic activity” (EJNMMI Research, 2019).
Where “and” joins values, the source holds several entries; their conditions need not be identical. Identical values can stand only once. Like-named read-outs stand apart in the source and are kept apart here.

Legend:
[1] = system: 5-HT1B receptor; assay: PET displacement by fenfluramine-induced endogenous 5-HT release in NHP brain; format: in vivo, cynomolgus monkey; conditions: for Specific binding (45-123 min) in the occipital cortex: baseline PET
Protocol: (§1) Three female cynomolgus monkeys were supplied by Astrid Fagraeus Laboratory at the Karolinska Institutet (Solna, Sweden). Anesthesia was initiated via intramuscular injection of ketamine hydrochloride (ca. 10 mg/kg) and after, intubation was maintained by the administration of a mixture of sevoflurane, oxygen, and medical air.
(§2) The NHPs were observed continuously during the days of PET measurements. Body temperature was maintained by Bair Hugger-Model 505 (Arizant Healthcare Inc., MN) and monitored with an esophageal thermometer. Heart rate, blood pressure, respiratory rate, and oxygen saturation were continuously monitored throughout the experiments. Fluid balance was maintained by a continuous infusion of saline. The NHP head was fixed in position throughout PET data acquisition as described previously. PET measurements were conducted using a high-resolution research tomograph (Siemens). Radioactivity in the brain was measured continuously for 123 min after radioligand injection according to a preprogrammed series of 34 frames.
PET measurements using fenfluramine to evaluate the sensitivity of [^11C]1 and [^11C]3 towards endogenous 5-HT release followed an identical procedure for two NHPs (weight 6.8 and 7.0 kg). Each NHP was used in a baseline and a displacement PET measurement with intravenous infusion of fenfluramine over 5 min starting 15 min after injection of the same radioligand as used in the baseline measurement. The dose of fenfluramine was 1 mg/kg (i.v.) for both radioligands and 5 mg/kg (i.v.) for [^11C]3 only. After an unexpected complication, the study was limited to be concluded only at the lower dose level. In summary, results for [^11C]1 were acquired from this study (1 mg/kg of fenfluramine) and from Lindberg et al. (5.0 mg/kg of fenfluramine), [15] results for [^11C]2 were exclusively acquired from Finnema et al., and all results for [^11C]3 were acquired from this study. The experimental procedure in this study was designed to replicate the procedure described by Finnema et al..
(§3) Average PET images were manually co-registered to a T1-weighted brain magnetic resonance (MR) image previously obtained for each monkey. The co-registration parameters were applied to the dynamic PET data. Regions of interest (ROI) were delineated manually for the whole brain, occipital cortex, globus pallidus, caudate nucleus, putamen, ventral striatum (nucleus accumbens), cerebellum, frontal cortex, midbrain, thalamus, and hippocampus. Regional radioactivity was expressed as standardized uptake value (SUV), which was calculated as uptake (becquerels/milliliter)/injected radioactivity (becquerels) × body weight (grams).
(§4) The cerebellum was used as a reference region because this region has negligible density of 5-HT1B receptors. Specific binding to the 5-HT1B receptor was defined as the difference between the total radioactivity concentration in the target brain region and that in the cerebellum, each using the area under the time-radioactivity curve for the scan interval 45–123 min. The binding potential (BPND) was defined as the ratio of specific binding to the radioactivity concentration in the cerebellum, calculated by simplified reference tissue model (SRTM).

[2] = biological target: T1, 5-HT1B receptor (Homo sapiens, UniProt P28222); assay: 5-HT1B receptor affinity (in vitro data, Fig. 1); format: binding; conditions: data provided by AstraZeneca
T1 sequence (P28222 whole entry): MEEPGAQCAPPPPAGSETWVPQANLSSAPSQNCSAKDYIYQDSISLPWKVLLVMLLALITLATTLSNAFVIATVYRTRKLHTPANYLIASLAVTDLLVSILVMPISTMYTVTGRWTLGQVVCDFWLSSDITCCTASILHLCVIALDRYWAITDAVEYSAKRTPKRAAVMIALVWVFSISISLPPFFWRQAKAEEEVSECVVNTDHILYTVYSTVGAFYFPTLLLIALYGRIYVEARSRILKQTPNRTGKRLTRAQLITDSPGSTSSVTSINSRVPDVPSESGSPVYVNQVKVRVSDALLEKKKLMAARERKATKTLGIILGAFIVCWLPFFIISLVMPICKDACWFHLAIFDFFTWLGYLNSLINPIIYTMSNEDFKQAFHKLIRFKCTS

[3] = logD (in vitro data, Fig. 1); format: physicochemical; conditions: data provided by AstraZeneca
[4] = biological target: T1, 5-HT1B receptor; assay: GTPγ35S binding assay for EC50 and intrinsic activity (agonist/antagonist efficacy); format: biochemical; conditions: data provided by AstraZeneca; for Antagonist effect / Agonist effect: measured at 10 μM
Protocol: EC50 values and intrinsic activity (antagonist/agonist efficacy) were measured by comparing 5-HT1B receptor ability to bind GTPγ^35S when stimulated with 5-HT. The agonist/antagonist effect (percentage) was measured at 10 μM and EC50 in a range from 10 μM to 170 pM. EC50 was determined as the concentration at half the maximum of the dose-response curve.

[5] = system: 5-HT1B receptor; parameters: method as in PMID 20222157; conditions: baseline PET; results for [11C]2 acquired from Finnema et al.; cited from earlier work
[6] = system: 5-HT1B receptor; assay: PET baseline and AR-A000002 pretreatment measurement of specific binding in NHP brain; format: in vivo, cynomolgus monkey
Protocol: as §1, §2
In an initial PET study to evaluate the specific binding of [^11C]3, one NHP (weight 6.9 kg) was used in a baseline measurement. This monkey was also used in a pretreatment paradigm in which the 5-HT1B antagonist AR-A000002 (AZ10419427; 2.0 mg/kg) was intravenously infused over 6 min starting at 30 min before radioligand injection.
as §3, §4

[7] = fenfluramine 1.0 mg/kg i.v. 15 min after radioligand, 45-123 min, individual monkeys
[8] = fenfluramine 1.0 mg/kg i.v., 45-123 min
[9] = fenfluramine 1.0 mg/kg i.v., individual monkeys
[10] = AR-A000002 2.0 mg/kg i.v. pretreatment vs baseline
[11] = after pretreatment with AR-A000002 2.0 mg/kg i.v.
[12] = fenfluramine 5.0 mg/kg, 45-123 min

| Structure (SMILES) | Specific binding (45-123 min) in the occipital cortex [1] | Decrease in specific binding, occipital cortex [1, 7] | Displacement (decrease in specific binding), globus pallidus [1, 9] | Ki [2] | logD [3] | Antagonist effect [4] | Agonist effect [4] | also measured |
| --- | --- | --- | --- | --- | --- | --- | --- | --- |
| [11CH3]N1CCN(c2cc(F)cc3c(=O)cc(C(=O)Nc4ccc(N5CCOCC5)c(F)c4)oc23)CC1 [[^11C]1] | 3.2 | 19% | 3% and 9% | 0.13 nM | 2.3 | 190% |  | Reduction in specific binding, midbrain [1, 8]: 2%; Reduction in specific binding, thalamus [1, 8]: 33% |
| Cc1ccc(N2CCN([11CH3])CC2)c2oc(C(=O)Nc3ccc(N4CCOCC4)cc3)cc(=O)c12 [[^11C]2] |  |  |  | 0.4 nM | 1.3 | 48% | 53.2% | Specific binding (45-123 min) in the occipital cortex [5]: 1.9 |
| [11CH3]N1CCN(c2cccc3c2O[C@H](C(=O)Nc2ccc(N4CCOCC4)cc2)CC3)CC1 [[^11C]3] | 0.9 | 16% and 27% | 4% and 11% | 0.6 nM | 1.5 | 18% | 77.1% | Reduction of BPND, globus pallidus [6, 10]: 52%; Reduction of BPND, occipital cortex [6, 10]: 90%; BPND, globus pallidus [6, 11]: 0.23; BPND, occipital cortex [6, 11]: 0.07; BPND (SRTM), globus pallidus ([6]; baseline): 0.48; BPND (SRTM), occipital cortex ([6]; baseline): 0.7; Maximum radioactivity in the whole brain ([6]; baseline PET, i.v., one monkey): 2.5 SUV; Time of maximum whole brain radioactivity ([6]; baseline PET, i.v., one monkey): 10 min; Decrease in specific binding, occipital cortex ([1]; fenfluramine 5.0 mg/kg i.v. 15 min after radioligand, 45-123 min, individual monkeys): 61% and 62%; Reduction in specific binding, frontal cortex [1, 12]: 68%; Reduction in specific binding, hippocampus [1, 12]: 34%; Displacement, globus pallidus ([1]; fenfluramine 5.0 mg/kg, individual monkeys): 35% and 49%; EC50 ([4]; range 10 μM to 170 pM): 0.97 nM |
